According to patent US6806230B1, “Pyrimidine derivatives and herbicides containing them” (Kumiai Chemical Industry Co., Ltd., priority 1999, dated 2004):

How the values were obtained:
Type in all cases: in vivo
[1] = test system: barnyard grass (Eo); assay: Test Example 1: herbicidal effects by flooded paddy field treatment; set-up: herbicidal effects, Eo (barnyard grass):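 0-5 growth inhibition grade; 5 = over 90%; 4 = 70-90%; 3 = 50-70%; 2 = 30-50%; 1 = 10-30%; 0 = under 10%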; conditions: dose 100 g active ingredient per 10 ares, examined on the 21st day after treatment, standards of Table 44
Method in brief: (§1)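 Seeds were sown in puddled paddy soil in pots and flooded to 3 cm. The next day a water-diluted wettable powder was dripped onto the water surface at 100 g active ingredient per 10 ares. Plants grew in a greenhouse, and herbicidal effect was scored on a rating scale 21 days after treatment.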

[2] = test system: monochoria (Mo); assay: as above; set-up: herbicidal effects, Mo (monochoria):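 0-5 growth inhibition grade; 5 = over 90%; 4 = 70-90%; 3 = 50-70%; 2 = 30-50%; 1 = 10-30%; 0 = under 10%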; conditions: dose 100 g active ingredient per 10 ares, examined on the 21st day after treatment, standards of Table 44
Method in brief: as §1

[3] = test system: barnyard grass (Ec); assay: Test Example 2: herbicidal effects by upland soil treatment; set-up: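 0-5 growth inhibition grade; 5 = over 90%; 4 = 70-90%; 3 = 50-70%; 2 = 30-50%; 1 = 10-30%; 0 = under 10%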; conditions: dose 100 g active ingredient per 10 ares, examined on the 21st day after treatment
Method in brief: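 Pre-emergence test: barnyard grass and green foxtail sown in upland soil, then soil surface sprayed with wettable-powder formulation at 100 g active ingredient per 10 ares (100 l per 10 ares). Grown in greenhouse; herbicidal effect scored on a rating scale 21 days after treatment.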

[4] = test system: barnyard grass (Ec); assay: Test Example 3: herbicidal effects by foliage treatment in upland field; set-up: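 0-5 growth inhibition grade; 5 = over 90%; 4 = 70-90%; 3 = 50-70%; 2 = 30-50%; 1 = 10-30%; 0 = under 10%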; conditions: dose 100 g active ingredient per 10 ares, examined on the 14th day after treatment
Method in brief: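 Barnyard grass and green foxtail were grown in upland soil for 2 weeks in a greenhouse. A water-diluted wettable powder was sprayed over the foliage at 100 l per 10 ares, giving 100 g active ingredient per 10 ares. Herbicidal effect was scored on day 14 after treatment.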

[5] = test system: barnyard grass (Eo); assay: Test Example 4: selectivity for a crop plant by flooded paddy field treatment; set-up: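 0-5 growth inhibition grade; 5 = over 90%; 4 = 70-90%; 3 = 50-70%; 2 = 30-50%; 1 = 10-30%; 0 = under 10%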; conditions: barnyard grass, dose 25 gai/10a, 21st day after treatment, index per Table 44
Method in brief: (§2)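 Paddy soil in pots was puddled, weed seeds were sown, second-leaf-stage rice was transplanted, and the pots were flooded to 3 cm. The next day a water-diluted wettable powder was dropped onto the water surface at 25 g active ingredient per 10 ares. Herbicidal effect was scored on a rating scale 21 days after treatment in a greenhouse.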

[6] = test system: monochoria (Mo); assay: as above; set-up: scale not given here; conditions: monochoria, dose 25 gai/10a, 21st day after treatment, index per Table 44
Method in brief: as §2

[7] = test system: rice (Or); assay: as above; set-up: scale not given here; conditions: rice transplanted at second leaf stage, dose 25 gai/10a, 21st day after treatment, index per Table 44
Method in brief: as §2

CN(C(=O)Cc1ccc(F)cc1)C(c1cncnc1C1(C)CC1)C1(C)CC1 (racemic) [1-473]
herbicidal effects, Eo (barnyard grass) [1]: 5
herbicidal effects, Mo (monochoria) [2]: 5
Ec (herbicidal effects, index) [3]: 5
Ec (herbicidal effects, index) [4]: 5
Eo (herbicidal effect index) [5]: 5
Mo (herbicidal effect index) [6]: 5
Or (herbicidal effect index on crop) [7]: 1

COCC(c1cncnc1C(C)C)N(C)C(=O)Cc1ccc(Cl)cc1 (racemic) [1-584]
herbicidal effects, Eo (barnyard grass) [1]: 5
herbicidal effects, Mo (monochoria) [2]: 5
Ec (herbicidal effects, index) [3]: 5
Ec (herbicidal effects, index) [4]: 4
Eo (herbicidal effect index) [5]: 5
Mo (herbicidal effect index) [6]: 5
Or (herbicidal effect index on crop) [7]: 1

C#CCN(C(=O)Cc1ccc(F)cc1)C(CCC)c1cncnc1C(C)C (racemic) [1-611]
herbicidal effects, Eo (barnyard grass) [1]: 5
herbicidal effects, Mo (monochoria) [2]: 5
Ec (herbicidal effects, index) [3]: 5
Ec (herbicidal effects, index) [4]: 4
Eo (herbicidal effect index) [5]: 5
Mo (herbicidal effect index) [6]: 5
Or (herbicidal effect index on crop) [7]: 1

C#CCN(C(=O)Cc1ccc(F)cc1)C(CCC)c1cncnc1CC (racemic) [1-607]
herbicidal effects, Eo (barnyard grass) [1]: 5
herbicidal effects, Mo (monochoria) [2]: 5
Ec (herbicidal effects, index) [3]: 4
Ec (herbicidal effects, index) [4]: 4
Eo (herbicidal effect index) [5]: 5
Mo (herbicidal effect index) [6]: 5
Or (herbicidal effect index on crop) [7]: 1

CCOC(OCC)C(c1cncnc1C(C)C)N(C)C(=O)Cc1ccc(F)cc1 (racemic) [1-455]
herbicidal effects, Eo (barnyard grass) [1]: 5
herbicidal effects, Mo (monochoria) [2]: 5
Ec (herbicidal effects, index) [3]: 5
Ec (herbicidal effects, index) [4]: 4
Eo (herbicidal effect index) [5]: 5
Mo (herbicidal effect index) [6]: 5
Or (herbicidal effect index on crop) [7]: 1

CC(C)C(c1cncnc1C(F)(F)F)N(C)C(=O)Cc1ccc(F)c(F)c1F (racemic) [1-417]
herbicidal effects, Eo (barnyard grass) [1]: 5
herbicidal effects, Mo (monochoria) [2]: 5
Ec (herbicidal effects, index) [3]: 5
Ec (herbicidal effects, index) [4]: 4
Eo (herbicidal effect index) [5]: 5
Mo (herbicidal effect index) [6]: 5
Or (herbicidal effect index on crop) [7]: 1

CC(=O)c1ncncc1C(C(C)C)N(C)C(=O)Cc1ccc(F)cc1 (racemic) [1-527]
herbicidal effects, Eo (barnyard grass) [1]: 5
herbicidal effects, Mo (monochoria) [2]: 5
Ec (herbicidal effects, index) [3]: 5
Ec (herbicidal effects, index) [4]: 4
Eo (herbicidal effect index) [5]: 5
Mo (herbicidal effect index) [6]: 5
Or (herbicidal effect index on crop) [7]: 1

C#CCN(C(=O)Cc1cccc(F)c1)C(c1cncnc1C(F)(F)F)C(C)C (racemic) [1-569]
herbicidal effects, Eo (barnyard grass) [1]: 5
herbicidal effects, Mo (monochoria) [2]: 5
Ec (herbicidal effects, index) [3]: 5
Ec (herbicidal effects, index) [4]: 5
Eo (herbicidal effect index) [5]: 5
Mo (herbicidal effect index) [6]: 5
Or (herbicidal effect index on crop) [7]: 1

CCC(c1cncnc1C(C)C)N(C)C(=O)Cc1ccccc1 (racemic) [1-436]
herbicidal effects, Eo (barnyard grass) [1]: 5
herbicidal effects, Mo (monochoria) [2]: 5
Ec (herbicidal effects, index) [3]: 5
Ec (herbicidal effects, index) [4]: 4
Eo (herbicidal effect index) [5]: 5
Mo (herbicidal effect index) [6]: 5
Or (herbicidal effect index on crop) [7]: 1

CC(C)C(c1cncnc1C#N)N(C)C(=O)Cc1ccc(Cl)cc1 (racemic) [1-506]
herbicidal effects, Eo (barnyard grass) [1]: 5
herbicidal effects, Mo (monochoria) [2]: 5
Ec (herbicidal effects, index) [3]: 5
Ec (herbicidal effects, index) [4]: 4
Eo (herbicidal effect index) [5]: 5
Mo (herbicidal effect index) [6]: 5
Or (herbicidal effect index on crop) [7]: 1

CCC(C)C(c1cncnc1C(F)(F)F)N(C)C(=O)Cc1ccc(Cl)cc1F (mixture of isomers) [Compound 1-251]
herbicidal effects, Eo (barnyard grass) [1]: 5
herbicidal effects, Mo (monochoria) [2]: 5
Ec (herbicidal effects, index) [3]: 5
Ec (herbicidal effects, index) [4]: 4
Eo (herbicidal effect index) [5]: 5
Mo (herbicidal effect index) [6]: 5
Or (herbicidal effect index on crop) [7]: 1

COc1ccc(C(c2cncnc2C(F)(F)F)N(C)C(=O)Cc2ccccc2)cc1 (racemic) [1-484]
herbicidal effects, Eo (barnyard grass) [1]: 5
herbicidal effects, Mo (monochoria) [2]: 5
Ec (herbicidal effects, index) [3]: 5
Ec (herbicidal effects, index) [4]: 5
Eo (herbicidal effect index) [5]: 5
Mo (herbicidal effect index) [6]: 5
Or (herbicidal effect index on crop) [7]: 1

COc1ncncc1C(C(C)C)N(C)C(=O)Cc1ccccc1 (racemic) [1-401]
herbicidal effects, Eo (barnyard grass) [1]: 5
herbicidal effects, Mo (monochoria) [2]: 5
Ec (herbicidal effects, index) [3]: 5
Ec (herbicidal effects, index) [4]: 5
Eo (herbicidal effect index) [5]: 5
Mo (herbicidal effect index) [6]: 5
Or (herbicidal effect index on crop) [7]: 1

CC(C)C(c1cncnc1C(F)(F)F)N(CC#N)C(=O)Cc1ccc(F)cc1 (racemic) [1-579]
herbicidal effects, Eo (barnyard grass) [1]: 5
herbicidal effects, Mo (monochoria) [2]: 5
Ec (herbicidal effects, index) [3]: 5
Ec (herbicidal effects, index) [4]: 4
Eo (herbicidal effect index) [5]: 5
Mo (herbicidal effect index) [6]: 5
Or (herbicidal effect index on crop) [7]: 1

CN(C(=O)Cc1ccc(F)cc1)C(c1ccccc1F)c1cncnc1C(F)(F)F (racemic) [1-547]
herbicidal effects, Eo (barnyard grass) [1]: 5
herbicidal effects, Mo (monochoria) [2]: 5
Ec (herbicidal effects, index) [3]: 5
Ec (herbicidal effects, index) [4]: 4
Eo (herbicidal effect index) [5]: 5
Mo (herbicidal effect index) [6]: 5
Or (herbicidal effect index on crop) [7]: 1

COc1ncncc1C(C(C)C)N(C)C(=O)Cc1ccc(C)cc1 (racemic) [1-404]
herbicidal effects, Eo (barnyard grass) [1]: 5
herbicidal effects, Mo (monochoria) [2]: 5
Ec (herbicidal effects, index) [3]: 5
Ec (herbicidal effects, index) [4]: 5
Eo (herbicidal effect index) [5]: 5
Mo (herbicidal effect index) [6]: 5
Or (herbicidal effect index on crop) [7]: 1

COc1ccccc1C(c1cncnc1C(F)(F)F)N(C)C(=O)Cc1ccc(Cl)cc1 (racemic) [1-490]
herbicidal effects, Eo (barnyard grass) [1]: 5
herbicidal effects, Mo (monochoria) [2]: 5
Ec (herbicidal effects, index) [3]: 5
Ec (herbicidal effects, index) [4]: 4
Eo (herbicidal effect index) [5]: 5
Mo (herbicidal effect index) [6]: 5
Or (herbicidal effect index on crop) [7]: 0

CCCC(c1cncnc1C(C)C)N(C)C(=O)Cc1ccc(C)cc1 (racemic) [1-452]
herbicidal effects, Eo (barnyard grass) [1]: 5
herbicidal effects, Mo (monochoria) [2]: 5
Ec (herbicidal effects, index) [3]: 5
Ec (herbicidal effects, index) [4]: 4
Eo (herbicidal effect index) [5]: 5
Mo (herbicidal effect index) [6]: 5
Or (herbicidal effect index on crop) [7]: 0

Cc1ccc(CC(=O)N(C)C(c2cncnc2C(F)(F)F)C2(C)CC2)cc1 (racemic) [1-412]
herbicidal effects, Eo (barnyard grass) [1]: 5
herbicidal effects, Mo (monochoria) [2]: 5
Ec (herbicidal effects, index) [3]: 5
Ec (herbicidal effects, index) [4]: 4
Eo (herbicidal effect index) [5]: 5
Mo (herbicidal effect index) [6]: 5
Or (herbicidal effect index on crop) [7]: 1

CC(=O)c1ncncc1C(C(C)C)N(C)C(=O)C(C)c1ccc(Cl)cc1 (mixture of isomers) [1-530]
herbicidal effects, Eo (barnyard grass) [1]: 5
herbicidal effects, Mo (monochoria) [2]: 5
Ec (herbicidal effects, index) [3]: 5
Ec (herbicidal effects, index) [4]: 4
Eo (herbicidal effect index) [5]: 5
Mo (herbicidal effect index) [6]: 5
Or (herbicidal effect index on crop) [7]: 1

C#CCN(C(=O)Cc1ccccc1)C(c1cncnc1CC)C(C)C (racemic) [1-558]
herbicidal effects, Eo (barnyard grass) [1]: 5
herbicidal effects, Mo (monochoria) [2]: 5
Ec (herbicidal effects, index) [3]: 5
Ec (herbicidal effects, index) [4]: 4
Eo (herbicidal effect index) [5]: 5
Mo (herbicidal effect index) [6]: 5
Or (herbicidal effect index on crop) [7]: 1

CCCc1ncncc1C(CCC)N(C)C(=O)Cc1ccc(Cl)cc1 (racemic) [1-494]
herbicidal effects, Eo (barnyard grass) [1]: 5
herbicidal effects, Mo (monochoria) [2]: 5
Ec (herbicidal effects, index) [3]: 5
Ec (herbicidal effects, index) [4]: 5
Eo (herbicidal effect index) [5]: 5
Mo (herbicidal effect index) [6]: 5
Or (herbicidal effect index on crop) [7]: 1

CC(C)C(c1cncnc1C#N)N(C)C(=O)Cc1ccc(F)cc1 (racemic) [1-505]
herbicidal effects, Eo (barnyard grass) [1]: 5
herbicidal effects, Mo (monochoria) [2]: 5
Ec (herbicidal effects, index) [3]: 5
Ec (herbicidal effects, index) [4]: 5
Eo (herbicidal effect index) [5]: 5
Mo (herbicidal effect index) [6]: 5
Or (herbicidal effect index on crop) [7]: 0

CSC(C)C(c1cncnc1C(F)(F)F)N(C)C(=O)Cc1ccc(F)cc1 (mixture of isomers) [1-416]
herbicidal effects, Eo (barnyard grass) [1]: 5
herbicidal effects, Mo (monochoria) [2]: 5
Ec (herbicidal effects, index) [3]: 5
Ec (herbicidal effects, index) [4]: 5
Eo (herbicidal effect index) [5]: 5
Mo (herbicidal effect index) [6]: 5
Or (herbicidal effect index on crop) [7]: 1
